Experiments:
[1] = xn = mol fraction of the nth substance listed; details: 101 kPa, Liquid; for speed of sound: Pulse-echo method
[2] = refractive index (Na D-line) (dimensionless); xn = mol fraction of the nth substance listed; details: 101 kPa, Liquid, Standard Abbe refractometry

NCCO [2-aminoethan-1-ol] + CN1CCCC1=O
Details	mass density, [1] [kg/m3]	refractive index, [2]	speed of sound, [1] [m/s]	viscosity, [1] [mPa·s]
293.15 K, x2 = 0	–	1.4525	–	–
293.15 K, x2 = 0.1	–	1.4546	–	–
293.15 K, x2 = 0.209	–	1.4567	–	–
293.15 K, x2 = 0.3	–	1.4587	–	–
293.15 K, x2 = 0.4	–	1.4604	–	–
293.15 K, x2 = 0.5	–	1.462	–	–
293.15 K, x2 = 0.596	–	1.4634	–	–
293.15 K, x2 = 0.7	–	1.4648	–	–
293.15 K, x2 = 0.8	–	1.4663	–	–
293.15 K, x2 = 0.907	–	1.4677	–	–
303.15 K, x2 = 0	–	1.4488	–	–
303.15 K, x2 = 0.1	–	1.4507	–	–
303.15 K, x2 = 0.209	–	1.4527	–	–
303.15 K, x2 = 0.3	–	1.4546	–	–
303.15 K, x2 = 0.4	–	1.4563	–	–
303.15 K, x2 = 0.5	–	1.4578	–	–
303.15 K, x2 = 0.596	–	1.4592	–	–
303.15 K, x2 = 0.7	–	1.4605	–	–
303.15 K, x2 = 0.8	–	1.4619	–	–
303.15 K, x2 = 0.907	–	1.4632	–	–
313.15 K, x2 = 0	–	1.4449	–	–
313.15 K, x2 = 0.1	–	1.4467	–	–
313.15 K, x2 = 0.209	–	1.4486	–	–
313.15 K, x2 = 0.3	–	1.4505	–	–
313.15 K, x2 = 0.4	–	1.452	–	–
313.15 K, x2 = 0.5	1005.5	1.4534	–	2.697
313.15 K, x2 = 0.596	1006.9	1.4548	–	2.245
313.15 K, x2 = 0.7	1008.69	1.4561	–	1.866
313.15 K, x2 = 0.8	1010.68	1.4575	–	1.62
313.15 K, x2 = 0.907	1012.79	1.4588	–	1.462
323.15 K, x2 = 0	992.75	1.4417	1638.8	6.902
323.15 K, x2 = 0.1	993.31	1.4434	1600.2	5.386
323.15 K, x2 = 0.209	994	1.4451	1568.9	4.159
323.15 K, x2 = 0.3	994.64	1.4466	1544.4	3.289
323.15 K, x2 = 0.4	995.6	1.4479	1521.5	2.625
323.15 K, x2 = 0.5	996.7	1.4493	1502	2.173
323.15 K, x2 = 0.596	998.14	1.4506	1486.7	1.883
323.15 K, x2 = 0.7	999.74	1.4519	1474.5	1.574
323.15 K, x2 = 0.8	1001.73	1.4533	1464.8	1.356
323.15 K, x2 = 0.907	1003.86	1.4545	1456.8	1.24

Reference: the NIST ThermoML archive (doi:10.1021/je100967k)
